Test system: Varroa mites
Test: Test set-up 2004: honeybee colonies infested with Varroa mites, count of mites fallen down in the hive
Assay type: in vivo, Varroa destructor or Varroa jacobsoni
Description: For the test set-up 2004 two bee colonies (A and B) were chosen, which were not used for honey production because of the medium applied for subsequent evaluation of residues and also because colony B was a swarming colony. Each colony consisted of approx. 25,000 animals. Both colonies were housed each in two so-called ‘Herold’ or ‘Zeitler’ hives with 10 frames. Their infestation, colony size, brood and general state was examined and approved.
In the beginning only hive A was treated with the mixture, hive B remained untreated in order to gain reference data. Over a period of 3½ months seven treatments took place with a longer break period of more than 30 days between two treatment cycles. At the end, two treatments with Perizin® were carried out in order to check on remaining mite infestation.
Approx. […] The hive was opened and from the top the medium was finely distributed with the lance at 5 cm intervals into the spaces between the frames. First the lower than immediately the upper frame was treated.
Before the hive was covered again two minutes were allowed for aeration. The time needed for treatment of each hive was one to two minutes (without aeration).
In order to ascertain the amount of mites fallen down in the hive the floor boards of both hives (A and B) were lined entirely with two ‘diapers’ and covered with Vaseline coated paper. This was done in order to make sure that mites which might have been still alive were prevented from running away. This process was repeated after every mite count.
The colonies C to L represented reference colonies and served to ascertain the Varroa density at the location (those hives were only lined with diapers). As those were predominantly migrating colonies they were not available throughout the whole duration of the treatment, but they still represent the general situation.
Especially as many apiarists relocate their hives there is always infestation with Varroa in spite of preventive measures taken. When recording the mites found amounts of 50 animals were counted exactly.
The course of the test is outlined here in note form: […]

O=CO [formic acid]
count of mites fallen down in the hive (reference colony C, check-up 6 Sep. 2004, after formic acid (60%) evaporation of 30 Aug., amounts above 50 partially counted and extrapolated): 1.200
count of mites fallen down in the hive (reference colony C, check-up 20 Sep. 2004, after second formic acid treatment of 6 Sep.): 160
count of mites fallen down in the hive (reference colony D, check-up 6 Sep. 2004, after formic acid (60%) evaporation of 30 Aug., amounts above 50 partially counted and extrapolated): 600
count of mites fallen down in the hive (reference colony D, check-up 20 Sep. 2004, after second formic acid treatment of 6 Sep.): 40
count of mites fallen down in the hive (reference colony E, check-up 6 Sep. 2004, after formic acid (60%) evaporation of 30 Aug., amounts above 50 partially counted and extrapolated): 400
count of mites fallen down in the hive (reference colony E, check-up 20 Sep. 2004, after second formic acid treatment of 6 Sep.): 50
count of mites fallen down in the hive (reference colony F, check-up 6 Sep. 2004, after formic acid (60%) evaporation of 30 Aug.): 50
count of mites fallen down in the hive (reference colony F, check-up 20 Sep. 2004, after second formic acid treatment of 6 Sep.): 10
count of mites fallen down in the hive (reference colony G, check-up 6 Sep. 2004, after formic acid (60%) evaporation of 30 Aug., amounts above 50 partially counted and extrapolated): 400
count of mites fallen down in the hive (reference colony G, check-up 20 Sep. 2004, after second formic acid treatment of 6 Sep.): 100
count of mites fallen down in the hive (reference colony H, check-up 6 Sep. 2004, after formic acid (60%) evaporation of 30 Aug., amounts above 50 partially counted and extrapolated): 500
count of mites fallen down in the hive (reference colony H, check-up 20 Sep. 2004, after second formic acid treatment of 6 Sep.): 240
count of mites fallen down in the hive (reference colony I, check-up 6 Sep. 2004, after formic acid (60%) evaporation of 30 Aug.): 50
count of mites fallen down in the hive (reference colony I, check-up 20 Sep. 2004, after second formic acid treatment of 6 Sep.): 38
count of mites fallen down in the hive (reference colony J, check-up 6 Sep. 2004, after formic acid (60%) evaporation of 30 Aug., amounts above 50 partially counted and extrapolated): 200
count of mites fallen down in the hive (reference colony J, check-up 20 Sep. 2004, after second formic acid treatment of 6 Sep.): 44
count of mites fallen down in the hive (reference colony K, check-up 6 Sep. 2004, after formic acid (60%) evaporation of 30 Aug., amounts above 50 partially counted and extrapolated): 200
count of mites fallen down in the hive (reference colony K, check-up 20 Sep. 2004, after second formic acid treatment of 6 Sep.): 60
count of mites fallen down in the hive (reference colony L, check-up 6 Sep. 2004, after formic acid (60%) evaporation of 30 Aug., amounts above 50 partially counted and extrapolated): 200
count of mites fallen down in the hive (reference colony L, check-up 20 Sep. 2004, after second formic acid treatment of 6 Sep.): 100
